Earlier results on one molecule are cited in patent publication US8937168B2, “Method of producing purified rebaudioside A compositions using solvent/antisolvent crystallization” (Cargill, Incorporated, priority 2007, dated 2015).

For this data set the following is noted: relative to sucrose; background statement.

For `C=C1C[C@@]23CC[C@H]4[C@@](C)(CCC[C@@]4(C)C(=O)O[C@@H]4O[C@H](CO)[C@@H](O)[C@H](O)[C@H]4O)[C@@H]2CC[C@]1(O[C@@H]1O[C@H](CO)[C@@H](O)[C@H](O[C@@H]2O[C@H](CO)[C@@H](O)[C@H](O)[C@H]2O)[C@H]1O[C@@H]1O[C@H](CO)[C@@H](O)[C@H](O)[C@H]1O)C3` [Rebaudioside A, rebaudioside A], the “times the sweetness of sucrose” value was 250-450 times.
